This note sets out measurements from patent US7053107B2, “Indazole compounds and pharmaceutical compositions for inhibiting protein kinases, and methods for their use” (Agouron Pharmaceuticals, Inc., priority 2002, dated 2006).

The target in one series is T1, FGF-R1 (Homo sapiens, UniProt P11362, C488A/C584S/L457V).
T1 construct: starting from the endogenous methionine residue 456 to glutamate 766; made in house; host or cells: baculovirus vector expression system
As to the kind of experiment: Fibroblast Growth Factor (FGF-R) spectrophotometric assay. It counts as biochemical. The conditions noted are these: for inhibition at 1 µM: 1 μM compound, read-out: FGF-P % inhibit @1 μM. The procedure, abridged:
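Baculovirus-expressed human FGF-R1 kinase domain (Met456–Glu766; L457V/C488A/C584S), 50 nM, with 2 mM ATP and 15 mM poly(E4Y1) in HEPES pH 7.5. ADP formation coupled via PK/LDH to NADH oxidation, read as A340 decrease. Ki from activity across varying compound concentrations.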

Series [1] deals with human umbilical vein endothelial cells (HUVEC). As to the kind of experiment: HUVEC Proliferation Assay (VEGF-stimulated). It counts as cell-based. The procedure, abridged:
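Serum-starved HUVEC (passage 3–4, F12K + 1% FBS, 24 h) pretreated 1 h with compound (final DMSO 0.1%), then stimulated with 6 ng/mL VEGF for 72 h. Proliferation read by 4 h MTT reduction, absorbance 595. IC50 from seven-point 0.5-log curves in triplicate; screening % inhibition normalised to VEGF-only and starvation controls.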

Series [2] deals with T2, unphosphorylated VEGF-R2Δ50 (Homo sapiens, UniProt P35968, DEL940-989/E990V).
T2 construct: VEGF-R2Δ50 contains residues 806–939 and 990–1171; made in house; host or cells: baculovirus/insect cell system
As to the kind of experiment: VEGF-R2 coupled spectrophotometric assay, unphosphorylated construct (FLVK). The format is biochemical. The settings on record: % inhibition at 50 nM compound; read-out: FLVK Ki % inh @ 50 nM. The method in brief:
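Human VEGF-R2Δ50 kinase (residues 806–939/990–1171, baculovirus-expressed; autophosphorylated form pre-treated with 3 mM ATP, 4° C, 2 h), 5–40 nM, with poly(E4Y1) in 200 mM HEPES pH 7.5; ADP coupled via PK/LDH to NADH oxidation at 340 nm. Phosphorylated: 1 mM ATP, 5.1 mM poly(E4Y1), 25 mM MgCl2; unphosphorylated: 3 mM ATP, 20 mM poly(E4Y1), 60 mM MgCl2, 2 mM MnCl2. Ki from activity at varying compound levels.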

Series [3] is described as follows: Human Liver Microsome (HLM) Assay. It counts as in vitro ADME. The method, then:
Compound metabolism in human liver microsomes was measured by LC-MS analytical assay procedures as follows. First, human liver microsomes (HLM) were thawed and diluted to 5 mg/mL with cold 100 mM potassium phosphate (KPO4) buffer. Appropriate amounts of KPO4 buffer, NADPH-regenerating solution (containing B-NADP, glucose-6-phosphate, glucose-6-phosphate dehydrogenase, and MgCl2), and HLM were preincubated in 13×100 mm glass tubes at 37 C. for 10 min. (3 tubes per test compound—triplicate). Test compound (5 µM final) was added to each tube to initiate reaction and was mixed by gentle vortexing, followed by incubation at 37° C. […] Samples were centrifuged at 4000 rpm for 20 min. to precipitate proteins and salt (Beckman Allegra 6KR, S/N ALK98DO6, #634). Supernatant was transferred to new 12×75 mm glass tubes and evaporated by Speed-Vac centrifugal vacuum evaporator. Samples were reconstituted in 200 μL 0.1% formic acid/acetonitrile (90/10) and vortexed vigorously to dissolve. The samples were then transferred to separate polypropylene microcentrifuge tubes and centrifuged at 14000×g for 10 min. (Fisher Micro 14, S/N M0017580). […]
The combined compound samples were injected into the LC-MS system, composed of a Hewlett-Packard HP 1100 diode array HPLC and a Micromass Quattro II triple quadruple mass spectrometer operating in positive electrospray SIR mode (programmed to scan specifically for the molecular ion of each test compound. Each test compound peak was integrated at each timepoint. […]
For orientation: Microsomes from liver hold many membrane-bound enzymes, among them those of drug oxidation.

T1 sequence (P11362 456-766 L457V/C488A/C584S): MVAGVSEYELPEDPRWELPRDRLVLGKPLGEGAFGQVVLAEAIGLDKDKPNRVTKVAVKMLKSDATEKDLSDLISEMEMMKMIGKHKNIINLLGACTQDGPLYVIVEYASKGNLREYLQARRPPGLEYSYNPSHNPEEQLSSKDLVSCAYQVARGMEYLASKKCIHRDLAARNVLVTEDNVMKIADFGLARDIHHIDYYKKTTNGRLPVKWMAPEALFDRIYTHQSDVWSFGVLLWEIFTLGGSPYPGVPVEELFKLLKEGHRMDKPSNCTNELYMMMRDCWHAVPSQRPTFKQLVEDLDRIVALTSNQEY
T2 sequence (P35968 with tags, fused parts or gaps DEL940-989/E990V limits assumed): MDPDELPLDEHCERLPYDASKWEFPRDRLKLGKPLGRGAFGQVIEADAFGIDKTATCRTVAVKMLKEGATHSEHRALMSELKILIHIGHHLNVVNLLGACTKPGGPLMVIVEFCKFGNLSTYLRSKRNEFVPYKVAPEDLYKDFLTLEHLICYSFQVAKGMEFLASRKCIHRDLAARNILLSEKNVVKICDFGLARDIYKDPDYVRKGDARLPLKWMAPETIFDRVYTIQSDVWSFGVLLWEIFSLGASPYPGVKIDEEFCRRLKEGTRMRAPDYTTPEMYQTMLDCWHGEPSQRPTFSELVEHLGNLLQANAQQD

With `C#CCNC(=O)c1ccccc1Nc1ccc2c(/C=C/c3cc(C)ccn3)n[nH]c2c1` [Example 32, 2-{3-[(E)-2-(4-Methyl-pyridin-2-yl)-vinyl]-1H-indazol-6-ylamino}-N-prop-2-ynyl-benzamide], the inhibition at 1 µM on FGF-R1 was 70%. Moreover, in series [1], the IC50 (commonly the point on the concentration scale where inhibition reaches its midpoint) came to 0.61 nM. For the same compound, the inhibition at 0.05 µM in series [2] was determined as 78%. Further, the “% remaining (HLM)” value in series [3] (@0.5 h) is given as 97@0.5 h %.
As for `Cc1cc(C)nc(/C=C/c2n[nH]c3cc(Nc4ccccc4C(=O)NCC#CCO)ccc23)c1` [Example 10, 2-{3-[(E)-2-(4,6-Dimethyl-pyridin-2-yl)-vinyl]-1H-indazol-6-ylamino}-N-(4-hydroxy-but-2-ynyl)-benzamide], the inhibition at 1 µM on FGF-R1 stood at 38%. For the same compound, the inhibitory constant (Ki) (as a rule, the dissociation constant of the complex between target and ligand, obtained from inhibition or displacement) on FGF-R1 (second value in the FGF-P cell, Ki) was found to be 197 nM. The midpoint of inhibition in series [1], the IC50, lay at 0.67 nM. Moreover, the inhibition at 0.05 µM in series [2] was found to be 76%. For the same compound, the “% remaining (HLM)” value in series [3] (@0.5 h) is 80@0.5 h %.
Regarding `C=C(C)CNC(=O)c1ccccc1Nc1ccc2c(/C=C/c3ccccn3)n[nH]c2c1` [Example 3(k), N-(2-Methyl-allyl)-2-[3-((E)-2-pyridin-2-yl-vinyl)-1H-indazol-6-ylamino]-benzamide], the inhibition at 1 µM on FGF-R1 was determined as 36%. This compound returned a concentration for half-maximal inhibition (IC50) in series [1] of 0.8 nM. Also, the inhibition at 0.05 µM in series [2] came to 74%. In series [3] (@0.5 h), the “% remaining (HLM)” value is recorded as 75@0.5 h %.
On to `Cc1ccnc(/C=C/c2n[nH]c3cc(Nc4ccccc4C(=O)NC4CC4)ccc23)c1` [Example 2(h), N-Cyclopropyl-2-{3-[(E)-2-(4-methyl-pyridin-2-yl)-vinyl]-1H-indazol-6-ylamino}-benzamide], for which, at FGF-R1, the inhibition at 1 µM was determined as 75%. The compound also gave an IC50 in series [1] of 1.6 nM. In series [2], the inhibition at 0.05 µM stood at 84%. Further, in series [3] (@0.5 h), the “% remaining (HLM)” value is reported as 74@0.5 h %.
Take `COc1ccccc1CNC(=O)c1ccccc1Nc1ccc2c(/C=C/c3ccccn3)n[nH]c2c1` [Example 3(h), N-(2-Methoxy-benzyl)-2-[3-((E)-2-pyridin-2-yl-vinyl)-1H-indazol-6-ylamino]-benzamide]: the inhibition at 1 µM on FGF-R1 stood at 85%. Besides, the IC50 in series [1] worked out at 1.6 nM. Moreover, the inhibition at 0.05 µM in series [2] stood at 96%. Also, the “% remaining (HLM)” value in series [3] (@0.5 h) is on record as 75@0.5 h %.
For `O=C(NC1CC1)c1ccccc1Nc1ccc2c(/C=C/c3ccccn3)n[nH]c2c1` [Example 3(d), N-Cyclopropyl-2-[3-((E)-2-pyridin-2-yl-vinyl)-1H-indazol-6-ylamino]-benzamide], on FGF-R1, the inhibition at 1 µM was determined as 80%. This compound also yielded an IC50 in series [1] of 0.4 nM. Also, in series [2], the inhibition at 0.05 µM turned out to be 89%. In addition, the “% remaining (HLM)” value in series [3] (@2 h) is on record as 68@2 h %.
In the case of `O=C(NCC#CCO)c1ccccc1Nc1ccc2c(/C=C/c3ccccn3)n[nH]c2c1` [Example 64, N-(4-Hydroxy-but-2-ynyl)-2-[3-(2-pyridin-2-yl-vinyl)-1H-indazol-6-ylamino]-benzamide], the inhibition at 1 µM at FGF-R1 was 39%. Further, the IC50 in series [1] was 0.15 nM. Besides, the inhibition at 0.05 µM in series [2] worked out at 94%. Further, in series [3] (@0.5 h), the “% remaining (HLM)” value is on record as 66@0.5 h %.
In the case of `O=C(NC1CCC1)c1ccccc1Nc1ccc2c(/C=C/c3ccccn3)n[nH]c2c1` [Example 3(j), N-Cyclobutyl-2-[3-((E)-2-pyridin-2-yl-vinyl)-1H-indazol-6-ylamino]-benzamide], the inhibition at 1 µM at FGF-R1 stood at 43%. Also, in series [1], the IC50 was determined as 1.7 nM. In addition, in series [2], the inhibition at 0.05 µM is 80%. Moreover, in series [3] (@0.5 h), the “% remaining (HLM)” value is listed as 65@0.5 h %.
